Legend:
[1] = system: Phakopsora pachyrhizi (F129L); experiment: Protective control of soybean rust on soybeans (PHAKPA P6); format: in vivo; details: soybean rust F129L; for % PHAKPA (F129L) Disease level P6 at 4 ppm: protective P6, 4 ppm; for % PHAKPA (F129L) Disease level P6 at 16 ppm: protective P6, 16 ppm
[2] = system: Phakopsora pachyrhizi (F129L); experiment: Protective control of soybean rust on soybeans (PHAKPA P2); format: in vivo; details: soybean rust F129L; for % PHAKPA (F129L) Disease level P2 at 4 ppm: protective P2, 4 ppm; for % PHAKPA (F129L) Disease level P2 at 16 ppm: protective P2, 16 ppm

SMILES	% PHAKPA (F129L) Disease level P6 at 4 ppm [1] [%]	% PHAKPA (F129L) Disease level P6 at 16 ppm [1] [%]	% PHAKPA (F129L) Disease level P2 at 4 ppm [2] [%]	% PHAKPA (F129L) Disease level P2 at 16 ppm [2] [%]
CO/N=C(/c1cccc(/C(C)=N/OCc2c(C)cccc2/C(=N\OC)C(=O)OC)c1)C(F)(F)F [compound 70]	10	1	30	0
CNC(=O)/C(=N/OC)c1cccc(C)c1CO/N=C(\C)c1cccc(/C(=N/OC)C(F)(F)F)c1 [compound 71]	6	0	2	0
CO/N=C(/C(=O)OC)c1cccc(C)c1CO/N=C(/c1ccccc1)C(F)F [compound 72]	93	80	100	87
CO/N=C(/C(=O)OC)c1cccc(C)c1CO/N=C(\C)c1cccc(C2CC2(Cl)Cl)c1 (stereo not shown) [compound 74]	16	3	27	6
CNC(=O)/C(=N/OC)c1cccc(C)c1CO/N=C(\C)c1cccc(C2CC2(Cl)Cl)c1 (stereo not shown) [compound 75]	13	1	8	0
CO/N=C(/C(=O)OC)c1cccc(C)c1CO/N=C(\C)c1cccc(OC)c1 [compound 78]	30	1	40	1
CNC(=O)/C(=N/OC)c1cccc(C)c1CO/N=C(\C)c1cccc(OC)c1 [compound 79]	44	4	21	2
CO/N=C(/C(=O)OC)c1cccc(C)c1CO/N=C(\C)c1cccc(OC(F)F)c1 [compound 80]	30	3	50	10
CNC(=O)/C(=N/OC)c1cccc(C)c1CO/N=C(\C)c1cccc(OC(F)F)c1 [compound 81]	2	0	6	0
CNC(=O)/C(=N/OC)c1cccc(C)c1CO/N=C(\C)c1cccc(F)c1 [compound 85]	0	0	1	0
CO/N=C(/C(=O)OC)c1cccc(C)c1CO/N=C(\C)c1cc(F)cc(F)c1 [compound 87]	7	0	8	0
CNC(=O)/C(=N/OC)c1cccc(C)c1CO/N=C(\C(C)=O)c1cccc(C(F)(F)F)c1 [compound 93]	43	37	83	32
CO/N=C(/C(=O)OC)c1cccc(C)c1CO/N=C(\C)c1cc(C)cc(C)c1 [compound 94]	35	2	22	5
CO/N=C(/C(=O)OC)c1cccc(C)c1CO/N=C(\C)c1cccc(C(C)C)c1 [compound 95]	33	4	11	0
CO/N=C(/C(=O)OC)c1cccc(C)c1CO/N=C(\C)c1cccc(C(C)(C)C)c1 [compound 96]	3	0	6	1
CO/N=C(/C(=O)OC)c1cccc(C)c1CO/N=C(\C)c1cccc(-c2ccccc2)c1 [compound 97]	1	0	4	1
CNC(=O)/C(=N/OC)c1cccc(C)c1CO/N=C(\C)c1cccc(-c2ccccc2)c1 [compound 98]	1	0	3	0
CNC(=O)/C(=N/OC)c1cccc(C)c1CO/N=C(\C)c1cc(C)cc(C)c1 [compound 99]	87	33	43	12
CNC(=O)/C(=N/OC)c1cccc(C)c1CO/N=C(\C)c1cccc(C(C)(C)C)c1 [compound 100]	25	4	18	0

SMILES	% PHAKPA (F129L) Disease level P6 at 4 ppm [1] [%]	% PHAKPA (F129L) Disease level P6 at 16 ppm [1] [%]	% PHAKPA (F129L) Disease level P2 at 4 ppm [2] [%]	% PHAKPA (F129L) Disease level P2 at 16 ppm [2] [%]
CO/N=C(/C(=O)OC)c1cccc(C)c1CO/N=C(\C)c1cc(C)cc(Cl)c1 [compound 101]	60	17	70	37
CO/N=C(/C(=O)OC)c1cccc(C)c1CO/N=C(\C)c1ccc(Cl)c(C)c1 [compound 102]	90	43	60	11
CO/N=C(/C(=O)OC)c1cccc(C)c1CO/N=C(\C)c1ccc(F)cc1 [compound 103]	35	4	40	3
CNC(=O)/C(=N/OC)c1cccc(C)c1CO/N=C(\C)c1cccc(C(C)C)c1 [compound 105]	39	13	18	1
CNC(=O)/C(=N/OC)c1cccc(C)c1CO/N=C(\C)c1cc(C)cc(Cl)c1 [compound 106]	32	9	5	1
CNC(=O)/C(=N/OC)c1cccc(C)c1CO/N=C(\C)c1ccc(Cl)c(C)c1 [compound 107]	15	1	1	0
CNC(=O)/C(=N/OC)c1cccc(C)c1CO/N=C(\C)c1ccc(F)cc1 [compound 108]	1	0	1	0
CNC(=O)/C(=N/OC)c1cccc(C)c1CO/N=C(\C)c1ccc(C)c(Cl)c1 [compound 109]	12	0	8	1
CO/N=C(/C(=O)OC)c1cccc(C)c1CO/N=C(\C)c1cc(Cl)cc(Cl)c1F [compound 110]	30	1	20	3
CO/N=C(/C(=O)OC)c1cccc(C)c1CO/N=C(\C)c1ccc(-c2ccccc2)cc1 [compound 111]	46	10	28	8
CNC(=O)/C(=N/OC)c1cccc(C)c1CO/N=C(\C)c1cccc(C#N)c1 [compound 112]	30	9	13	3
CO/N=C(/C(=O)OC)c1cccc(C)c1CO/N=C(\C)c1ccc(Br)cc1 [compound 114]	52	15	38	5
CO/N=C(/C(=O)OC)c1cccc(C)c1CO/N=C(\C)c1ccccc1C [compound 115]	92	75	83	63
CO/N=C(/C(=O)OC)c1cccc(C)c1CO/N=C(\C)c1ccccc1Cl [compound 116]	85	67	85	57
CO/N=C(/C(=O)OC)c1cccc(C)c1CO/N=C(\C)c1cc(Cl)ccc1Cl [compound 117]	88	12	85	10
CO/N=C(/C(=O)OC)c1cccc(C)c1CO/N=C(\C)c1cc(F)ccc1F [compound 118]	32	0	10	0
CO/N=C(/C(=O)OC)c1cccc(C)c1CO/N=C(\C)c1ccccc1Br [compound 119]	92	63	93	63
CO/N=C(/C(=O)OC)c1cccc(C)c1CO/N=C(\C)c1ccccc1-c1ccccc1 [compound 121]	98	92	100	98

From patent US20230172204A1 (BASF SE, priority 2020, published 2023)
